For one substance, IC50 and MIC results are on record in publication PMC10817917, “Alkyl deoxyglycoside-polymyxin combinations against critical priority carbapenem-resistant gram-negative bacteria” (Scientific Reports, 2024).

In one assay the test system is HEK-293 cells. Also noted: method as in PMID 30532748. The conditions noted are these: polymyxin alone; cited from earlier work.
In the next assay the test system is K. pneumoniae CQ1942. Kind of assay: Broth microdilution MIC, glycosides with or without polymyxins. The conditions noted are these: agent alone, no adjuvant (polymyxin conc. 0); strain E. It is filed as cell-based, Klebsiella pneumoniae. (In general: Dilution methods test growth across graded concentrations, often in twofold steps.)
A further assay has as its system E. coli NCTC 13846. Kind of assay: Broth microdilution MIC/MBC, glycosides with or without polymyxins. It is filed as cell-based, Escherichia coli. The conditions noted are these: agent alone, no adjuvant (polymyxin conc. 0); strain B.
The test system of a further assay is Caco-2 cells. Briefly: Resazurin cell viability assay (cytotoxicity). It is filed as cell-based, human. To be noted: tested alone (no polymyxin adjuvant); 72 h. Here is the method: (§1) Cytotoxicity of each compound alone or in combination with different polymyxin concentrations was evaluated through the resazurin cell viability assay[49] in human embryonic HEK-293T cells, as well as in human colon adenocarcinoma Caco-2 cells, after a 72-h long incubation period.
(§2) HEK-293T and Caco-2 cells were grown in RPMI 1640 medium (VWR) supplemented with 10% FBS (Biowest), 1% PenStrep (Sigma Aldrich), and 1% glutamine (Biowest) in a humidified incubator at 37 °C with a 5% CO2 atmosphere. Twice a week, the medium was aspirated, the cells were washed with DPBS (VWR), trypsinized with trypsin–EDTA solution (Biowest), and resuspended in fresh culture medium. The dose-dependent effects of each glycoside or glycoside-polymyxin combination were evaluated by the resazurin cell viability assay. Polymyxins (colistin sulfate and PMB sulfate for microbiological assays, European Pharmacopoeia Reference Standards, Sigma-Aldrich) were firstly dissolved in sterilized Mili-Q water to a stock concentration of 1 mg/mL, while glycosides were dissolved in DMSO to a stock concentration of 30 mM. 1.5 × 10^4 cells/well in 96.5 µL of medium were seeded onto 96-well plates and incubated at 37 °C for 24 h. For each compound, ten stock dilutions (with concentrations from 750 to 75 µM) were prepared in fresh medium immediately prior to incubation. 16 µL of each dilution were added to each well so that the final glycoside concentrations ranged from 100 to 10 µM in each row in a final assay volume of 120 µL. In addition, the previously prepared polymyxin stock solutions were diluted in fresh medium, affording new stocks of 8, 4, and 2 µg/mL. The same volume (7.5 µL/well) of PMB or colistin was then added to each row to achieve a final polymyxin concentration of 0.5, 0.25, and 0.125 µg/mL, respectively, regardless of the glycoside concentration. In assays without polymyxin, the same volume (7.5 µL/well) of medium was added. In all assays, the maximum DMSO concentration was 0.33%. After a 72-h incubation at 37 °C, 12 µL of a 0.15 mg/mL resazurin (Sigma-Aldrich) in sterilized Mili-Q water were added to each well, and the plates were left incubating for another 4 h at 37 °C. Resorufin was measured at 570/600 nm, and the percentage of resazurin reduction, corresponding to the cell viability percentage, was calculated according to Eq. (1)[60]. IC50 values were obtained by best fitting the dose-dependent inhibition curves using the Prism 9® software. The results were expressed as the mean ± SD of three independent replicates, with only data from analysis with R^2 > 0.90 being considered.1 %Cellviability=Abssample-Absmediumcontrol/Abscellcontrol-Absmediumcontrol×100
(In general: Resazurin is reduced to fluorescent resorufin, in cell work by metabolically active cells.)

The test system of another assay is HEK-293T cells. Kind of assay: Resazurin cell viability assay (cytotoxicity). The format is cell-based, human. To be noted: tested alone (no polymyxin adjuvant); 72 h. Here is the method:
as §1, §2

The test system of another assay is A. baumannii CQ4322. Briefly: Broth microdilution MIC/MBC, glycosides with or without polymyxins. It is filed as cell-based, Acinetobacter baumannii. The conditions noted are these: agent alone, no adjuvant (polymyxin conc. 0); strain G.
For the next assay, the system named is E. cloacae CQ1941. The assay is described as above. The conditions noted are these: agent alone, no adjuvant (polymyxin conc. 0); strain D. It is filed as cell-based.
A further assay concerns P. aeruginosa CQ4924. Kind of assay: Broth microdilution MIC, glycosides with or without polymyxins. To be noted: agent alone, no adjuvant (polymyxin conc. 0); strain H. The format is cell-based, Pseudomonas aeruginosa.
Another assay concerns K. pneumoniae CQ1947. The description is as above. The format is cell-based, Klebsiella pneumoniae. The conditions noted are these: agent alone, no adjuvant (polymyxin conc. 0); strain F.
In a further assay the test system is K. pneumoniae CQ4921. Kind of assay: Broth microdilution MIC/MBC, glycosides with or without polymyxins. The format is cell-based, Klebsiella pneumoniae. The conditions noted are these: agent alone, no adjuvant (polymyxin conc. 0); strain C.
The subject of the next assay is E. coli ATCC 25922. Described as above. It is filed as cell-based, Escherichia coli. The conditions noted are these: agent alone, no adjuvant (polymyxin conc. 0); strain A.

Regarding polymyxin B [PMB, reference compound], the figures for the half-maximal inhibitory concentration (IC50) in the assay with HEK-293 cells, in the assay with Caco-2 cells and in the assay on HEK-293T cells were more than 500 µg/mL, more than 115 µg/mL and more than 115 µg/mL, respectively. Moreover, the MIC in the assay on K. pneumoniae CQ1942 amounted to 0.5 µg/mL; in the assay on E. coli NCTC 13846 it was 4 µg/mL; with A. baumannii CQ4322, 0.5 µg/mL; with E. cloacae CQ1941 it was 0.5 µg/mL; in the assay with P. aeruginosa CQ4924, 1 µg/mL; in the assay with K. pneumoniae CQ1947, 0.5 µg/mL. In addition, the MIC with K. pneumoniae CQ4921 and in the assay with E. coli ATCC 25922 was 0.5 µg/mL in each case.

In general, IC50 refers to the concentration that inhibits the measured activity by half. One may read the MIC as the smallest concentration in the dilution series that meets the test's criterion for growth inhibition.
